How the values were obtained:
Test in all cases: KINOMEscan competition binding
RPS6KA4 KD1 (human) = RPS6KA4 KD1 (human) (UniProt O75676); conditions: compound 10.0 µM
[1] = test system: PIK3CA (human), P42336 [Q546K]; conditions: compound 10.0 µM
NTRK3 (human) = NTRK3 (human) (UniProt Q16288); conditions: compound 10.0 µM
MARK3 (human) = MARK3 (human) (UniProt P27448); conditions: compound 10.0 µM
CAMK2B (human) = CAMK2B (human) (UniProt Q13554); conditions: compound 10.0 µM
ACVR2A (human) = ACVR2A (human) (UniProt P27037); conditions: compound 10.0 µM
[2] = test system: EGFR (human), P00533 [L858R]; conditions: compound 10.0 µM
PLK4 (human) = PLK4 (human) (UniProt O00444)
AKT3 (human) = AKT3 (human) (UniProt Q9Y243); conditions: compound 10.0 µM
EPHB4 (human) = EPHB4 (human) (UniProt P54760); conditions: compound 10.0 µM
CDK19 (human) = CDK19 (human) (UniProt Q9BWU1); conditions: compound 10.0 µM
RIOK3 (human) = RIOK3 (human) (UniProt O14730); conditions: compound 10.0 µM
STK17A (human) = STK17A (human) (UniProt Q9UEE5); conditions: compound 10.0 µM
CAMK2D (human) = CAMK2D (human) (UniProt Q13557); conditions: compound 10.0 µM
CDK13 (human) = CDK13 (human) (UniProt Q14004); conditions: compound 10.0 µM
MAP3K11 (human) = MAP3K11 (human) (UniProt Q16584); conditions: compound 10.0 µM
YES1 (human) = YES1 (human) (UniProt P07947); conditions: compound 10.0 µM
CAMK4 (human) = CAMK4 (human) (UniProt Q16566); conditions: compound 10.0 µM
[3] = test system: EGFR (human), P00533 [A750P; 747-749 del]; conditions: compound 10.0 µM
MAP2K6 (human) = MAP2K6 (human) (UniProt P52564); conditions: compound 10.0 µM
HUNK (human) = HUNK (human) (UniProt P57058); conditions: compound 10.0 µM
PRKCD (human) = PRKCD (human) (UniProt Q05655); conditions: compound 10.0 µM
IKBKE (human) = IKBKE (human) (UniProt Q14164); conditions: compound 10.0 µM
CLK2 (human) = CLK2 (human) (UniProt P49760); conditions: compound 10.0 µM
CAMK1G (human) = CAMK1G (human) (UniProt Q96NX5); conditions: compound 10.0 µM
BMPR1A (human) = BMPR1A (human) (UniProt P36894); conditions: compound 10.0 µM
MAPK12 (human) = MAPK12 (human) (UniProt P53778); conditions: compound 10.0 µM
MAP3K10 (human) = MAP3K10 (human) (UniProt Q02779); conditions: compound 10.0 µM
TAOK1 (human) = TAOK1 (human) (UniProt Q7L7X3); conditions: compound 10.0 µM
MET (human) = MET (human) (UniProt P08581); conditions: compound 10.0 µM
MAP2K2 (human) = MAP2K2 (human) (UniProt P36507); conditions: compound 10.0 µM
ERN1 (human) = ERN1 (human) (UniProt O75460); conditions: compound 10.0 µM
ACVRL1 (human) = ACVRL1 (human) (UniProt P37023); conditions: compound 10.0 µM
CAMK1D (human) = CAMK1D (human) (UniProt Q8IU85); conditions: compound 10.0 µM
IRAK4 (human) = IRAK4 (human) (UniProt Q9NWZ3); conditions: compound 10.0 µM
PKN3 (M.tuberculosis) = PKN3 (M.tuberculosis) (UniProt Q6P5Z2); conditions: compound 10.0 µM
LYN (human) = LYN (human) (UniProt P07948); conditions: compound 10.0 µM
LRRK2 (human) = LRRK2 (human) (UniProt Q5S007)
PRKCQ (human) = PRKCQ (human) (UniProt Q04759); conditions: compound 10.0 µM
EPHA7 (human) = EPHA7 (human) (UniProt Q15375); conditions: compound 10.0 µM

Chain of LRRK2 (human) (Q5S007 whole entry, looked up): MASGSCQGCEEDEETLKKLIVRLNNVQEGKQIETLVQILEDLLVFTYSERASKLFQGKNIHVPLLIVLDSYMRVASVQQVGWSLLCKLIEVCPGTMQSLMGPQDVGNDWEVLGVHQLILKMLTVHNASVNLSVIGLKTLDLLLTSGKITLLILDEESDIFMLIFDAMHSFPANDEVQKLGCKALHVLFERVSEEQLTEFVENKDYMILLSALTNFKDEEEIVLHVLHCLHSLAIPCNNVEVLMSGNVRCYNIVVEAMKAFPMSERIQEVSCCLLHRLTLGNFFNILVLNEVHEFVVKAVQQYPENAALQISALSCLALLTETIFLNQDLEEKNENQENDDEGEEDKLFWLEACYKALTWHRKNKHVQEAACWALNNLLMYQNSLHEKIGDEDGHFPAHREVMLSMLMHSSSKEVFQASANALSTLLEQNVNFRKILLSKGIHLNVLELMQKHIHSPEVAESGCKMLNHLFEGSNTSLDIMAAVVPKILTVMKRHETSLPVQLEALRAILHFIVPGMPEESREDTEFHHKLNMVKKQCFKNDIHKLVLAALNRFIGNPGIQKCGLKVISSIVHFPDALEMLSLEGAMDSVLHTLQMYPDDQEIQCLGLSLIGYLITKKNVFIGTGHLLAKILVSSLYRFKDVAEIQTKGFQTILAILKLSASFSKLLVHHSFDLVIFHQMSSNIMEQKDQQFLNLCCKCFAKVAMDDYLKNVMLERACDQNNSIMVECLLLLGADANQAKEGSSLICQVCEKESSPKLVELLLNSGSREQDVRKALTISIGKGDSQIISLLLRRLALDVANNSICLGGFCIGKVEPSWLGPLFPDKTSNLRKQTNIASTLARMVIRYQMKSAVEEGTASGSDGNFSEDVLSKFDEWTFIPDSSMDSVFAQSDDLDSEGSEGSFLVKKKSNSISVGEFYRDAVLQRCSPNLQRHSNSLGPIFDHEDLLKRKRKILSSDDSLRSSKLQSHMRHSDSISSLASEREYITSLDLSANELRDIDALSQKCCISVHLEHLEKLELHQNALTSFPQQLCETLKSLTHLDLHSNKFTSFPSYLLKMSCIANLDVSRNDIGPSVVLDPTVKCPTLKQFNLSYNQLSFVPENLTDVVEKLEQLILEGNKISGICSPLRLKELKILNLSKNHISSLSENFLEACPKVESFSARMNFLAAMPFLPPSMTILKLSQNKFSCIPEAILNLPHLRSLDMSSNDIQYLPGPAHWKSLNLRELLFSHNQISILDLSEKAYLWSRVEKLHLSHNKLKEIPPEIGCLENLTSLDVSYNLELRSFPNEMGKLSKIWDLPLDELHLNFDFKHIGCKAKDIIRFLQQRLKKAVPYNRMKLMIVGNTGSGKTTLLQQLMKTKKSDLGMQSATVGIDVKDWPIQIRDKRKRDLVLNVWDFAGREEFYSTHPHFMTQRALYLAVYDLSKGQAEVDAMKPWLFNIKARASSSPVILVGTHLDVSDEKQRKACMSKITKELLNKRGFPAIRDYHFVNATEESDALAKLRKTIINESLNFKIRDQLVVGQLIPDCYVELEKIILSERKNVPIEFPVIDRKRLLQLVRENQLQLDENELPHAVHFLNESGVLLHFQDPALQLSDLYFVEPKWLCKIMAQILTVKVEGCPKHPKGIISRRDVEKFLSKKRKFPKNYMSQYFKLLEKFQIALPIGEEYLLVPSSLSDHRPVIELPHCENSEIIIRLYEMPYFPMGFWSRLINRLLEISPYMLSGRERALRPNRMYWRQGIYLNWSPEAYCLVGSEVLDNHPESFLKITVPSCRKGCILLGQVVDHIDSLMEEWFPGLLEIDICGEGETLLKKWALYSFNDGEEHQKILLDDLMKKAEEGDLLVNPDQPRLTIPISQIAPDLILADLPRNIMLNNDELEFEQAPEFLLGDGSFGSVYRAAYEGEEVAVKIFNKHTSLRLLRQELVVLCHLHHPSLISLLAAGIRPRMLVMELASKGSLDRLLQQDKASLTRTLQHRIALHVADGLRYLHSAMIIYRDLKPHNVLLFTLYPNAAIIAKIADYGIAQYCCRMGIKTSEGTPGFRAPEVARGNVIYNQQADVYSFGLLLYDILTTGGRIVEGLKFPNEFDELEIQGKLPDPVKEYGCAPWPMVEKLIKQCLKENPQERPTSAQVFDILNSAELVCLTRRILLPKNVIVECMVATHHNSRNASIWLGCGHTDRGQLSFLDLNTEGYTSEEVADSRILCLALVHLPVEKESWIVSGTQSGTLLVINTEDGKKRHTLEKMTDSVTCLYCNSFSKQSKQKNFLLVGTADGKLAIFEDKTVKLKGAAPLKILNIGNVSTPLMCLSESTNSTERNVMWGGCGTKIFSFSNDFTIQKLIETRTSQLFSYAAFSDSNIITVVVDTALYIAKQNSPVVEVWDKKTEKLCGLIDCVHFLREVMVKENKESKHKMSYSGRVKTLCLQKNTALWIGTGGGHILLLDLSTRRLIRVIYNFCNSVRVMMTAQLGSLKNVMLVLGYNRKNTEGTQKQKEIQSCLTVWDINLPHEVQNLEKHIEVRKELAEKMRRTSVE
Chain of PLK4 (human) (O00444 whole entry, looked up): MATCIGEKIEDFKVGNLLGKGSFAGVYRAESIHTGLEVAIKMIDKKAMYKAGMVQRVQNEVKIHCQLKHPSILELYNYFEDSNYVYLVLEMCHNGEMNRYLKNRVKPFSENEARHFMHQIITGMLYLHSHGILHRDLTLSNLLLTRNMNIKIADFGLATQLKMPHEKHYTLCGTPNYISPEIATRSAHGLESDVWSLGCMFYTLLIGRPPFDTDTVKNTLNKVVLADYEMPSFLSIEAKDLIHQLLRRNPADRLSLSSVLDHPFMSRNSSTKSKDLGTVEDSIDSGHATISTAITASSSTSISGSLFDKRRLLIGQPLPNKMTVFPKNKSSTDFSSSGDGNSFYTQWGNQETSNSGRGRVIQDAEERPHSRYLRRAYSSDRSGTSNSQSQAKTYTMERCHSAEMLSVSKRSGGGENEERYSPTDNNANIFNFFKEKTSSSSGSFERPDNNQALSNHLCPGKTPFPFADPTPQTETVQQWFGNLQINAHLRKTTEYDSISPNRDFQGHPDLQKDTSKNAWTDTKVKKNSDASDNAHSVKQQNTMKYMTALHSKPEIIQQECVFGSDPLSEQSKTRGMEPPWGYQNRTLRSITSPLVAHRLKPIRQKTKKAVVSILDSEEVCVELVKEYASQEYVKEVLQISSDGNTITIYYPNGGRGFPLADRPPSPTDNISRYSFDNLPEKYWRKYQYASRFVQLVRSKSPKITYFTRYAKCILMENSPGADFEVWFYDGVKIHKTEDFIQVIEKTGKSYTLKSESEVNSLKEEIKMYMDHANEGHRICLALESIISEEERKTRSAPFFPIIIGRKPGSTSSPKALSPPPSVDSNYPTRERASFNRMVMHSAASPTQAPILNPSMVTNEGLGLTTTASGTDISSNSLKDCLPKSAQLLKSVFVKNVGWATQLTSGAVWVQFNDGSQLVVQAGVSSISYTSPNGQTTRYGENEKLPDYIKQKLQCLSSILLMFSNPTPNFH
Chain of ACVR2A (human) (P27037 whole entry, looked up): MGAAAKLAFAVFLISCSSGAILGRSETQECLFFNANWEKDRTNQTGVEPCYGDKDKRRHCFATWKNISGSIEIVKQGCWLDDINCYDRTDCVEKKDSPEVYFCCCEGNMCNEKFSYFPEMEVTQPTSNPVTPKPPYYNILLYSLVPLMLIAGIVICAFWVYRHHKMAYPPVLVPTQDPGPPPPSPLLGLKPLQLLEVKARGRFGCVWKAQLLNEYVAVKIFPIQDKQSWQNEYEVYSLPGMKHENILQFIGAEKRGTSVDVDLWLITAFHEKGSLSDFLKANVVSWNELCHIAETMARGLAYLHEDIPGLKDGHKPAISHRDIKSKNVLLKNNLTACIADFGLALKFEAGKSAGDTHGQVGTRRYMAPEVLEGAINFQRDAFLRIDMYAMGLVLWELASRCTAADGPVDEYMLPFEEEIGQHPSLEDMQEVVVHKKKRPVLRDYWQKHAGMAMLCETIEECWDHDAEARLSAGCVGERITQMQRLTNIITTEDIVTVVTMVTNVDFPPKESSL
Chain of TAOK1 (human) (Q7L7X3 whole entry, looked up): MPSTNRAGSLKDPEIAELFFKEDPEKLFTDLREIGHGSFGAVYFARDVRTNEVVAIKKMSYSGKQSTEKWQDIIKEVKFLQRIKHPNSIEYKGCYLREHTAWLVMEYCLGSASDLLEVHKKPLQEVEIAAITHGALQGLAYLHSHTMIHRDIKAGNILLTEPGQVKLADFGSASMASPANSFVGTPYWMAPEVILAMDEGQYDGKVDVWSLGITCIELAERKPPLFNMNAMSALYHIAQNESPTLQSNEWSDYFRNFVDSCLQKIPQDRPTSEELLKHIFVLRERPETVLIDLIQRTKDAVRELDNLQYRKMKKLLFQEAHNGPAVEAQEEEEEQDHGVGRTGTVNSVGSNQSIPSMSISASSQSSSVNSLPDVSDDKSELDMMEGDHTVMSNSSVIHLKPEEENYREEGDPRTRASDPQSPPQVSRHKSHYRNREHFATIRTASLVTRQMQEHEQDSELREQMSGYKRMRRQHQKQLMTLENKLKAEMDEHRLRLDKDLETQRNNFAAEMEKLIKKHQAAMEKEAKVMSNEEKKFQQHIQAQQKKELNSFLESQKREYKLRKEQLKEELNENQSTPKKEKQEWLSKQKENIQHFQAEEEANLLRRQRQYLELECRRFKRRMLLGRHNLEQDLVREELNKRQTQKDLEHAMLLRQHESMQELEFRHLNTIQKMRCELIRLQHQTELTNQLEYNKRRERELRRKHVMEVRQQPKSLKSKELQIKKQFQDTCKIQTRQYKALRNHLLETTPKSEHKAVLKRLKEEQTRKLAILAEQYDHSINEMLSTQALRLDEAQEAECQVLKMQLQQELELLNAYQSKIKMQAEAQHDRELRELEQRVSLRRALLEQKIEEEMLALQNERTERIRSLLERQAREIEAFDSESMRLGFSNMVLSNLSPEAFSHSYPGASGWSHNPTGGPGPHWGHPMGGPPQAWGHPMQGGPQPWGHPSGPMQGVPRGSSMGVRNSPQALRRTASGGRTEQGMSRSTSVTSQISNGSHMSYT

Work on `COc1cc(C(=O)N2CCC(N3CCN(C)CC3)CC2)ccc1Nc1ncc2c(n1)N(C)c1ccccc1C(=O)N2C` yielded a kinase still bound, per cent of control (RPS6KA4 KD1 (human)) of 100%, a kinase still bound, per cent of control [1] of 91% and a kinase still bound, per cent of control (NTRK3 (human)) of 100%. The kinase still bound, per cent of control (MARK3 (human)) was 98%, the kinase still bound, per cent of control (CAMK2B (human)) was 62% and the kinase still bound, per cent of control (ACVR2A (human)) was 100%. It also gave a kinase still bound, per cent of control [2] of 79%, a Kd (PLK4 (human)) of 16 nM and a kinase still bound, per cent of control (PLK4 (human); compound 10.0 µM) of 0%. The kinase still bound, per cent of control (AKT3 (human)) was 100%, the kinase still bound, per cent of control (EPHB4 (human)) was 100% and the residual activity (CDK19 (human)) was 100%. The kinase still bound, per cent of control (RIOK3 (human)) was 85%, the kinase still bound, per cent of control (STK17A (human)) was 100% and the kinase still bound, per cent of control (CAMK2D (human)) was 28%. For the same compound, the residual activity (CDK13 (human)) was 100%, the kinase still bound, per cent of control (MAP3K11 (human)) was 100% and the kinase still bound, per cent of control (YES1 (human)) was 100%. It also gave a kinase still bound, per cent of control (CAMK4 (human)) of 79%, a kinase still bound, per cent of control [3] of 78% and a kinase still bound, per cent of control (MAP2K6 (human)) of 83%. It also gave a kinase still bound, per cent of control (HUNK (human)) of 100%, a kinase still bound, per cent of control (PRKCD (human)) of 75% and a kinase still bound, per cent of control (IKBKE (human)) of 96%. The kinase still bound, per cent of control (CLK2 (human)) was 72%, the kinase still bound, per cent of control (CAMK1G (human)) was 74% and the kinase still bound, per cent of control (BMPR1A (human)) was 100%. It also gave a kinase still bound, per cent of control (MAPK12 (human)) of 76%, a kinase still bound, per cent of control (MAP3K10 (human)) of 100% and a kinase still bound, per cent of control (TAOK1 (human)) of 28%. It also gave a kinase still bound, per cent of control (MET (human)) of 100%, a kinase still bound, per cent of control (MAP2K2 (human)) of 99% and a kinase still bound, per cent of control (ERN1 (human)) of 59%. For the same compound, the kinase still bound, per cent of control (ACVRL1 (human)) was 100%, the kinase still bound, per cent of control (CAMK1D (human)) was 69% and the kinase still bound, per cent of control (IRAK4 (human)) was 83%. It also gave a kinase still bound, per cent of control (PKN3 (M.tuberculosis)) of 100%, a kinase still bound, per cent of control (LYN (human)) of 100% and a Kd (LRRK2 (human)) of 20 nM. It also gave a kinase still bound, per cent of control (LRRK2 (human); compound 10.0 µM) of 0%, a kinase still bound, per cent of control (PRKCQ (human)) of 100% and a kinase still bound, per cent of control (EPHA7 (human)) of 97%.
